# Earlier results, collected in patent US12367980B2, “Methods for predicting treatment response in cancers” (Cancer Research Technology Limited, priority 2020, dated 2025).
# Like-named read-outs stand apart in the source and are kept apart here.
# Test system: ovarian cancer patients
# Settings: for response rate to Doxorubicin monotherapy: expected rate from clinical trials
compound,measurement,setting,value
"COc1cccc2c1C(=O)c1c(O)c3c(c(O)c1C2=O)C[C@@](O)(C(=O)CO)C[C@@H]3O[C@H]1C[C@H](N)[C@H](O)[C@H](C)O1 [Doxorubicin, doxorubicin]",response rate to Doxorubicin monotherapy,patients resistant to platinum chemotherapy,18%
same,response rate to doxorubicin,platinum resistant ovarian cancer patients,18%
same,response rate to doxorubicin,platinum sensitive ovarian cancer patients,52%
same,response rate to Doxorubicin monotherapy,"platinum sensitive patients (Gordon et al., 2001)",28%
